“Also recorded” adds a separate entry of the source.
How the values were obtained:
[1] = test system: rat ventricular cardiomyocytes; assay: Ca2+ transient and cell shortening (sarcomere length, indo-1) under field stimulation; assay type: cell-based; conditions: co-incubation; for effect on reduction of cell shortening and Ca2+ transient amplitude induced by N-Shh: Ccl 30 μM, LY 25 μM, L-NNA 100 μM
[2] = test system: rat ventricular cardiomyocytes; assay: Action potential recording, whole-cell patch clamp; assay type: cell-based; conditions: for effect on APD reduction induced by N-Shh: glibenclamide 1 μM acute, L-NNA, ODQ
Protocol: Whole-cell patch-clamp experiments were performed at room temperature (22-24° C.) with an Axopatch 200B (Axon instrument, Burlingham, Calif., USA). Patch pipettes had resistance of 2 MΩ. Currents were normalized to the cell membrane capacitance (pA/pF). Series resistances were compensated before recordings.
To record APs, pipettes solution contained (in mM): KCl (130), HEPES (25), ATP(Mg) (3), GTP(Na) (0.4), EGTA (0.5); pH 7.2 (KOH). Bathing solution contained (in mmol/L): NaCl (135), MgCl2 (1), KCl (4), Glucose (11), HEPES (2), CaCl2 (1.8); pH 7.4 (NaOH). APs were elicited by 0.2 ms current injection of supra-threshold intensity. During experiments, cells were stimulated by trains of 30 stimuli at 0.5 Hz.

[3] = biological target: T1, ATP-dependent potassium current (IKATP) (Rattus norvegicus, UniProt P70673+Q63563); assay: Glibenclamide-sensitive K+ current (IKATP), voltage clamp; assay type: cell-based
T1 construct: endogenous in cells; host or cells: isolated adult rat ventricular cardiomyocytes
T1 sequence (P70673 whole entry): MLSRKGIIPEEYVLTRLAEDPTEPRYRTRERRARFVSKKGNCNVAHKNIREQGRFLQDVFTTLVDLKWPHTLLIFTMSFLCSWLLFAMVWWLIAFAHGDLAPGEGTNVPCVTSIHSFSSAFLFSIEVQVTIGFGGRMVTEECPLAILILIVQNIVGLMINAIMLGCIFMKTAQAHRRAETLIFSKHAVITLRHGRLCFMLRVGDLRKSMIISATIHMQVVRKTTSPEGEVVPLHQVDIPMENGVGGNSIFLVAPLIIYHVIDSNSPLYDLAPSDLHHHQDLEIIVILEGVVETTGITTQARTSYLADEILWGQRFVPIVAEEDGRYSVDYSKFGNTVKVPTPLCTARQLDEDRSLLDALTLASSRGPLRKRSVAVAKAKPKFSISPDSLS
T1 sequence (Q63563 whole entry): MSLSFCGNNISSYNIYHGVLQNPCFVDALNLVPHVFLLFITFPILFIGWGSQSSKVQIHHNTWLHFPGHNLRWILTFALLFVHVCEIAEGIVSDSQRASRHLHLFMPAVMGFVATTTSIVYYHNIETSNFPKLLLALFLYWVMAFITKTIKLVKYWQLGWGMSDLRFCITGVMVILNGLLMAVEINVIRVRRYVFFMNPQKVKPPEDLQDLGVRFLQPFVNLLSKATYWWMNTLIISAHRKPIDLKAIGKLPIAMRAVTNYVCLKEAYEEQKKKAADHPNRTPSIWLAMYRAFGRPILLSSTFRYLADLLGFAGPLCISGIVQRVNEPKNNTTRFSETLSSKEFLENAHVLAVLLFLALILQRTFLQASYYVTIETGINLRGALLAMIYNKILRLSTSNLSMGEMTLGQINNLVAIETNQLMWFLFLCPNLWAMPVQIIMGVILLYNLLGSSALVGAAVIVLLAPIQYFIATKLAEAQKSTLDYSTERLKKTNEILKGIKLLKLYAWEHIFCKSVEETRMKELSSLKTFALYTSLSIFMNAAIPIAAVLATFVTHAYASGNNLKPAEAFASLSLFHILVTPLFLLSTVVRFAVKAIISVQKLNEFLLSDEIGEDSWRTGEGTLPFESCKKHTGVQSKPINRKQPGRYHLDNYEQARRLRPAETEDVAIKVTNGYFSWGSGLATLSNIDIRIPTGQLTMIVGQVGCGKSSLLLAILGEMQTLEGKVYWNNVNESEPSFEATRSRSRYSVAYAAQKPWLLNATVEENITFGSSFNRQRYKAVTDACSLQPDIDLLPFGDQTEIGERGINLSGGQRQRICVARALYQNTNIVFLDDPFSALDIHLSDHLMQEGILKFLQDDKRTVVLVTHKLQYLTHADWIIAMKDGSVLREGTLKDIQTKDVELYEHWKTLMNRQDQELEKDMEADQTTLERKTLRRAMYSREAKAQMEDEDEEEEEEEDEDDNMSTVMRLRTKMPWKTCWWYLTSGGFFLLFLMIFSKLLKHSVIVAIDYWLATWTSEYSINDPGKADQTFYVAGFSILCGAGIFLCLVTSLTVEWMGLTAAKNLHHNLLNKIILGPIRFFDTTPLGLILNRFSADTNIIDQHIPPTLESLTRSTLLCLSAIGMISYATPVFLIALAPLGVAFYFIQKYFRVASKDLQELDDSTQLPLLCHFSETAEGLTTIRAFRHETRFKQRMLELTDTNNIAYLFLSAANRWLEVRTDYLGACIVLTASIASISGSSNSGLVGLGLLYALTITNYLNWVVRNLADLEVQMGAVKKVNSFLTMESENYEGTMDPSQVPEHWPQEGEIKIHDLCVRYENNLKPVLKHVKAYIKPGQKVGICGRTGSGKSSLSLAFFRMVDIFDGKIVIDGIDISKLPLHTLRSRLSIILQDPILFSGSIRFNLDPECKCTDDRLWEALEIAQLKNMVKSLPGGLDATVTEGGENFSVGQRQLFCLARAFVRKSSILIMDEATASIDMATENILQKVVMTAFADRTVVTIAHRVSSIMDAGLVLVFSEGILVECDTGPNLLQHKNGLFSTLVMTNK

[4] = test system: rat ventricular cardiomyocytes; assay: Nitric oxide (NO) measurement, DAF fluorescence in cardiomyocytes; assay type: cell-based
[5] = test system: rat model of ischemia reperfusion; assay: ECG (QTc, ventricular arrhythmias) after 30 min ischemia and 24 h reperfusion; assay type: in vivo
Protocol: (§1) Rats were implanted with DSI PhysioTel™ Transmitter (CTA-F40, Data Sciences International, Saint-Paul, Minn., USA), fifteen days before starting experiments. After recovery, ECGs were recorded by using a signal transmitter-receiver (RPC-1; DSI) connected to a data acquisition system (IOX2; EMKA Technologies). The data were collected continuously at a sampling rate of 1,000 Hz. Thus, ECGs were recorded in rats before and 6 hours after i.v. injection of Shh, Shh and hexamethonium, MPs, Shh and cyclopamine, Shh and glibenclamide. ECGs were also monitored 24 h before ischemia, during ischemia and 24 h after reperfusion. Continuous digital recordings were analyzed offline by using the software ECG-auto (ver 1.5.12.22, EMKA Technologies). ECG signals were digitally filtered between 0.1 and 1,000 Hz. The heart rate and QT interval were measured. The QT interval was defined as the time between the first deviation from an isoelectric PR interval until the return of the ventricular repolarisation to the isoelectric TP baseline from lead II ECGs. […]
The rats were subjected to 30 min ischemia followed by reperfusion. The reperfusion injuries were histologically evaluated at 24 h after reperfusion by measuring the infarcted area relative to the area at risk (FIG. 9). […]

[6] = test system: rat model of ischemia reperfusion; assay: Left ventricular fibrosis, Masson trichrome histology 24 h after reperfusion; assay type: in vivo
Protocol: Thin sections (5 μm) were prepared from the rat left ventricles and stained with Haematoxylin-Eosin (HE) and Masson trichrome (MT) for light microscopy (10×). The thickening of the myocardium was estimated on the HE-stained heart sections, and the presence of collagen was analyzed on the MT-stained ventricle sections.

[7] = test system: rat model of ischemia reperfusion; assay: Infarct size (infarcted area relative to area at risk) 24 h after reperfusion; assay type: in vivo; conditions: cyclopamine with N-Shh
Protocol: The rats were subjected to 30 min ischemia followed by reperfusion. The reperfusion injuries were histologically evaluated at 24 h after reperfusion by measuring the infarcted area relative to the area at risk (FIG. 9). Fifteen minutes prior to reperfusion, one group of rats received intravenous (iv) injection of the recombinant Shh homolog ligand (N-ShhH, 25 μg·kg^−1), the second group received N-Shh and the Shh receptor (patch/smoothened) antagonist cyclopamine (N-Shh+Ccl, 30 μmol/L) and the third one the vehicle (control). […] Considering that the cardio-protective effects are observed within a short time after reperfusion (i.e. <24 h), it is unlikely that they are mediated by a neoangiogenesis and/or mobilization of progenitor cells (Kusano K F, Pola R, Murayama T, Curry C, Kawamoto A, Iwakura A, Shintani S, Ii M, Asai J, Tkebuchava T, Thorne T, Takenaka H, Aikawa R, Goukassian D, von Samson P, Hamada H, Yoon Y S, Silver M, Eaton E, Ma H, Heyd L, Kearney M, Munger W, Porter J A, Kishore R and Losordo D W. Sonic hedgehog myocardial gene therapy: tissue repair through transient reconstitution of embryonic signaling. Nat Med. 2005; 11:1197-204. […]

rats = assay: Telemetric ECG, QTc interval before and 6 hours after i.v. injection; assay type: in vivo, rat; conditions: given with Shh
Protocol: as §1, with “ECGs. The QT interval is dependent on the heart rate, therefore, QT interval should be corrected to take into account potential changes in RR interval. The QT correction was performed according to the Bazett's: formula:” for “ECGs.”
where QTB is the QT interval corrected for heart rate, and RR is the interval from the onset of one QRS complex to the onset of the next QRS complex.

Row | SMILES | effect on reduction of cell shortening and Ca2+ transient amplitude induced by N-Shh [1] | effect on APD reduction induced by N-Shh [2] | effect on IKATP elicited by N-Shh [3] | effect on the reduction in QTc interval after Shh injection (rats) | further results
1 | N=C(NCCC[C@H](N)C(=O)O)N[N+](=O)[O-] [L-NNA, N^ω-nitro-L-arginine] | fully abolished | blunted | blocked |  | effect on N-Shh-induced NO production ([4]; co-incubation with N-Shh, L-NNA 100 μM, LY 25 μM): prevented
2 | O=c1onc2cnc3ccccc3n12 [ODQ, 1H-[1.2.4]oxadiazolo[4.3-a]quinoxalin-1-one] |  | blunted | blocked |  | 
3 | CC1=C2C[C@H]3[C@@H](CC=C4C[C@@H](O)CC[C@@]43C)[C@@H]2CC[C@]12O[C@@H]1C[C@H](C)CN[C@H]1[C@H]2C [cyclopamine] | fully abolished |  |  | prevented | effect on reduction of cell shortening and Ca2+ transient induced by shed membrane MPs ([1]; cyclopamine 30 μM): blocked; effect on N-Shh prevention of QTc enlargement ([5]; cyclopamine injected in addition to N-Shh): No beneficial effect; also recorded: abolished; effect on Shh reduction of ventricular arrhythmic events ([5]; cyclopamine with N-Shh): abolished; effect on Shh prevention of fibrosis [6]: abolished; NO production (DAF fluorescence) vs control ([4]; cardiomyocytes incubated 4 h): no effect; effect on NO production induced by Shh-harboring MPs ([4]; pre-/co-incubation, cyclopamine 30 μM): prevented; effect on cardioprotective (infarct-reducing) effect of N-Shh [7]: fully abolished; also recorded: fully prevented
4 | COc1ccc(Cl)cc1C(=O)NCCc1ccc(S(=O)(=O)NC(=O)NC2CCCCC2)cc1 [glibenclamide] |  | prevented |  | prevented | effect on APD in the absence of N-Shh treatment ([2]; acute application): no effect
5 | C[N+](C)(C)CCCCCC[N+](C)(C)C [hexamethonium] |  |  |  | identical | 

Reference: patent US9987327B2, “Methods for treating myocardial infarction comprising administering sonic hedgehog” (INSERM (INSTITUT NATIONAL DE LA SANTE ET DE EA RECHERCHE …, priority 2013, dated 2018)
